Measurements from patent publication US10208033B2, “β-carboline, dihydro-β-carboline and tetrahydro-β-carboline alkaloid derivatives and preparation methods same and use in aspects of preventing and treating plant viruses, fungicides and insecticides” (NANKAI UNIVERSITY, priority 2013, dated 2019).
Where two headings read alike, the source gives them in different places.

How the values were obtained:
[1] = system: tobacco mosaic virus (TMV); test: Anti-TMV in vitro effect (half-leaf soaking); type: cell-based, tobacco mosaic virus (host Nicotiana tabacum L.cv.Xanthi NN)
[2] = system: tobacco mosaic virus (TMV); test: Anti-TMV in vivo inactivation; design: species or system tobacco mosaic virus (host Nicotiana tabacum L.cv.Xanthi NN)
[3] = system: tobacco mosaic virus (TMV); test: Anti-TMV in vivo therapeutic effect; design: species or system tobacco mosaic virus (host Nicotiana tabacum L.cv.Xanthi NN)
[4] = system: tobacco mosaic virus (TMV); test: Anti-TMV in vivo protective effect; design: species or system tobacco mosaic virus (host Nicotiana tabacum L.cv.Xanthi NN)
cucumber fusarium wilt = test: Fungicidal (bactericidal) activity in vitro, PDA colony diameter; type: cell-based
Cercospora arachidicola = test: as above; type: cell-based; conditions: 50 mg/kg
Macrophoma kawatsukai = test: as above; type: cell-based; conditions: 50 mg/kg
Alternaria solani = test: as above; type: cell-based; conditions: 50 mg/kg
Fusarium graminearumt = test: microbe, parasite or virus in culture; type: cell-based; conditions: 50 mg/kg
potato late blight = test: microbe, parasite or virus in culture; type: cell-based
Sclerotinia scleotiorum = test: Fungicidal (bactericidal) activity in vitro, PDA colony diameter; type: cell-based; conditions: 50 mg/kg
Botrytis cinerea = test: as above; type: cell-based; conditions: 50 mg/kg
Rhizoctonia solani = test: as above; type: cell-based; conditions: 50 mg/kg
Phytophthora capsici = test: as above; type: cell-based; conditions: 50 mg/kg
Fusarium fujikuroi = test: as above; type: cell-based; conditions: 50 mg/kg
Rhizoctonia cereali = test: as above; type: cell-based; conditions: 50 mg/kg
Bipolaria maydis = test: organism not typed; type: cell-based; conditions: 50 mg/kg
[5] = system: Colletotrichum orbiculare; test: Fungicidal (bactericidal) activity in vitro, PDA colony diameter; type: cell-based; conditions: 50 mg/kg
armyworms = type: in vivo; conditions: concentration 600 mg/kg
cotton bollworms = test: whole plant or invertebrate
Method: Experimental method of cotton bollworms: feed and drug mixing method: measure 3 mL of prepared solution and add it to about 27 g of newly prepared feed, thereby obtaining needed concentration through dilution by 10 times.

mosquito larvae = test: whole plant or invertebrate
In short: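 Early fourth-instar Culex pipiens pallens larvae from an indoor colony, 10 per beaker, exposed to test compound at 5 ppm in water, diluted from a 1000 ppm acetone mother solution. Blank: water containing 0.5 mL test solvent.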

Compound | Relative inhibition rate (%) In vitro activity ([1]; treatment dose 100 μg/mL) [%] | Relative inhibition rate (%) In vitro activity ([1]; treatment dose 500 μg/mL) [%] | Relative inhibition rate (%) In vivo inactivation ([2]; treatment dose 100 μg/mL) [%] | Relative inhibition rate (%) In vivo inactivation ([2]; treatment dose 500 μg/mL) [%] | Relative inhibition rate (%) In vivo therapy ([3]; treatment dose 100 μg/mL) [%] | Relative inhibition rate (%) In vivo therapy ([3]; treatment dose 500 μg/mL) [%] | Relative inhibition rate (%) In vivo protection ([4]; treatment dose 100 μg/mL) [%] | Relative inhibition rate (%) In vivo protection ([4]; treatment dose 500 μg/mL) [%] | Bactericidal activity (%) Cercospora arachidicola (Cercospora arachidicola) [%] | Bactericidal activity (%) Macrophoma kawatsukai (Macrophoma kawatsukai) [%] | Bactericidal activity (%) Alternaria solani (Alternaria solani) [%] | Bactericidal activity (%) Fusarium graminearumt (Fusarium graminearumt) [%] | Bactericidal activity (%) potato late blight (potato late blight) [%] | Bactericidal activity (%) Sclerotinia scleotiorum (Sclerotinia scleotiorum) [%] | Bactericidal activity (%) Botrytis cinerea (Botrytis cinerea) [%] | Bactericidal activity (%) Rhizoctonia solani (Rhizoctonia solani) [%] | Bactericidal activity (%) Phytophthora capsici (Phytophthora capsici) [%] | Bactericidal activity (%) Fusarium fujikuroi (Fusarium fujikuroi) [%] | Bactericidal activity (%) Rhizoctonia cereali (Rhizoctonia cereali) [%] | Bactericidal activity (%) Bipolaria maydis (Bipolaria maydis) [%] | further results
C[C@@H]1N[C@H](C(=O)NN=Cc2ccccn2)Cc2c1[nH]c1ccccc21 [Ic-17, (1S, 3S)—N′-(pyridine-2-methylene)-1-methyl-2,3,4,9-tetrahydropyridino [3,4-b] indol-3-formylhydrazine] | 0 | 32.7 | 9.2 | 38.9 | 0 | 36.8 | 0 | 31.4 | 23.5 | 75.0 | 20.0 | 20.7 | 12.0 | 5.9 | 36.4 | 21.1 | 18.4 | 21.4 | 41.2 | 16.0 | Bactericidal activity (%) Cucumber fusarium wilt (cucumber fusarium wilt; 50 mg/kg): 23.1%; Bactericidal activity (%) Colletotrichum orbiculare [5]: 25.9%; Armyworm Mortality (%) (armyworms): 25%; Cotton bollworm Mortality (%) (cotton bollworms; in vivo): 20%; Mosquito larvae Mortality (%) (mosquito larvae; in vivo): 50%; Corn borer Mortality (%) (corn borers; in vivo): 20%
C[C@@H]1N[C@H](C(=O)NN=Cc2ccco2)Cc2c1[nH]c1ccccc21 [Ic-18, (1S, 3S)—N′-(furan-2-methylene)-1-methyl-2,3,4,9-tetrahydropyridino [3,4-b] indol-3-formylhydrazine] | 15.4 | 48.8 | 18.2 | 54.6 | 9.3 | 44.2 | 11.5 | 47.5 | 52.9 | 69.4 | 35.0 | 6.9 | 36.0 | 64.7 | 81.8 | 32.9 | 39.5 | 28.6 | 68.6 | 20.0 | Bactericidal activity (%) Cucumber fusarium wilt (cucumber fusarium wilt): 11.5%; Bactericidal activity (%) Colletotrichum orbiculare [5]: 33.3%; Armyworm Mortality (%) (armyworms): 10%; Cotton bollworm Mortality (%) (cotton bollworms; concentration 600 mg/kg): 20%; Mosquito larvae Mortality (%) (mosquito larvae; concentration 10 mg/kg, 24 h): 25%; Corn borer Mortality (%) (corn borers; concentration 600 mg/kg): 15%
C[C@@H]1N[C@H](C(=O)NN=Cc2ncc[nH]2)Cc2c1[nH]c1ccccc21 [Ic-21, (1S, 3S)—N′-(imidazole-2-methylene)-1-methyl-2,3,4,9-tetrahydropyridino [3,4-b] indol-3-formylhydrazine] | 0 | 42.4 | 21.3 | 49.6 | 12.6 | 45.3 | 18.5 | 48.1 | 47.1 | 97.2 | 15.0 | 27.6 | 24.0 | 35.3 | 36.4 | 15.8 | 18.4 | 28.6 | 64.7 | 12.0 | Bactericidal activity (%) Cucumber fusarium wilt (cucumber fusarium wilt; 50 mg/kg): 34.6%; Bactericidal activity (%) Colletotrichum orbiculare [5]: 25.9%; Armyworm Mortality (%) (armyworms): 40%; Cotton bollworm Mortality (%) (cotton bollworms; concentration 600 mg/kg): 45%; Mosquito larvae Mortality (%) (mosquito larvae; concentration 10 mg/kg, 24 h): 85%; Corn borer Mortality (%) (corn borers; concentration 600 mg/kg): 35%
C/C=C/C=NNC(=O)[C@@H]1Cc2c([nH]c3ccccc23)[C@H](C)N1 [Ic-22, (1S, 3S)—N′-((E)-but-2-enylidene)-1-methyl-2,3,4,9-tetrahydropyridino [3,4-b] indol-3-formylhydrazine] | 0 | 35.2 | 8.5 | 47 | 0 | 33.2 | 6.7 | 37.1 | 29.4 | 52.8 | 30.0 | 20.7 | 32.0 | 41.2 | 40.9 | 6.6 | 31.6 | 14.3 | 64.7 | 36.0 | Bactericidal activity (%) Cucumber fusarium wilt (cucumber fusarium wilt; 50 mg/kg): 26.9%; Bactericidal activity (%) Colletotrichum orbiculare [5]: 22.2%; Armyworm Mortality (%) (armyworms): 40%; Cotton bollworm Mortality (%) (cotton bollworms; concentration 600 mg/kg): 20%; Mosquito larvae Mortality (%) (mosquito larvae; concentration 10 mg/kg, 24 h): 85%; Corn borer Mortality (%) (corn borers; concentration 600 mg/kg): 50%
CCCC=NNC(=O)[C@@H]1Cc2c([nH]c3ccccc23)[C@H](C)N1 [Ic-23, (1S, 3S)—N′-butylidene-1-methyl-2,3,4,9-tetrahydropyridino [3,4-b] indol-3-formylhydrazine] | 7.8 | 32.6 | 13.4 | 47.1 | 10.4 | 41.3 | 11.3 | 40.5 | 17.6 | 69.4 | 45.0 | 6.9 | 20.0 | 64.7 | 9.1 | 6.6 | 5.3 | 0.0 | 43.1 | 12.0 | Bactericidal activity (%) Cucumber fusarium wilt (cucumber fusarium wilt; 50 mg/kg): 19.2%; Bactericidal activity (%) Colletotrichum orbiculare [5]: 14.8%; Armyworm Mortality (%) (armyworms): 15%; Cotton bollworm Mortality (%) (cotton bollworms; concentration 600 mg/kg): 10%; Mosquito larvae Mortality (%) (mosquito larvae; concentration 10 mg/kg, 24 h): 35%; Corn borer Mortality (%) (corn borers; concentration 600 mg/kg): 10%
CCCCCCCC=NNC(=O)[C@@H]1Cc2c([nH]c3ccccc23)[C@H](C)N1 [Ic-24, (1S, 3S)—N′-octadien-1-methyl-2,3,4,9-tetrahydropyridino [3,4-b] indol-3-formylhydrazine] | 23.2 | 61.3 | 32.8 | 73.4 | 31.7 | 70.9 | 27.3 | 59.6 | 36.4 | 24.2 | 19.0 | 61.5 | 17.4 | 46.2 | 44.4 | 22.2 | 18.2 | 35.3 | 29.7 | 36.0 | Bactericidal activity (%) Cucumber fusarium wilt (cucumber fusarium wilt; 50 mg/kg): 9.1%; Bactericidal activity (%) Colletotrichum orbiculare [5]: 32.0%; Armyworm Mortality (%) (armyworms): 45%; Cotton bollworm Mortality (%) (cotton bollworms; concentration 600 mg/kg): 20%; Mosquito larvae Mortality (%) (mosquito larvae; concentration 5 mg/kg, 24 h): 10%; Mosquito larvae Mortality (%) (mosquito larvae; concentration 10 mg/kg, 24 h): 100%; Corn borer Mortality (%) (corn borers; concentration 600 mg/kg): 50%
